*1 amine or outer side, *2 acyl side, *3 side chain or, on linkers, in order; H or OH if unused. Where a SMILES comes first, the peptide text is derived from it. Bridges are numbered along the chain shown (N, C = ends). [ ]: non-standard residue; d: D form. The star is where a group is joined. NODAGA = O=C(O)CN1CCN(CC(=O)O)CCN(C(CCC(=O)*)C(=O)O)CC1; Tyr(3-Cl) = N[C@@H](Cc1ccc(O)c(Cl)c1)C(=O)O; X1 = O=C([C@@H]1CC(O)CN1[*:1])[*:2]
Test: Radio-HPLC analysis of blood for identification of metabolites
Format: in vivo
Conditions: rat plasma 15 and 90 min after injection
Method: Adult male Wistar rats were anesthetized by isoflurane (1-2% in medical air). Body temperature was maintained at 37° C. using a thermo-regulated heating pad. The right femoral vein and artery were cannulated for compound injection and blood sampling, respectively. Endothelial injury was induced by crush injury to the right common carotid artery (1-2 cm proximal to the carotid bifurcation) by clamping the vessel with a hemostat for 5 minutes. Immediately following the surgical procedures, rats were placed in a micro-PET/CT scanner. Compound (200-600 μL) was injected, PET-CT images were acquired, and blood samples were drawn from the femoral artery prior to compound injection and at 2, 5, 10, 15, 30, 60, 90, 120 min post injection. Tissues were harvested at the end for ex vivo analyses.
Aliquots of the 15 and 90 min plasma samples were injected into a HPLC and fractions were collected each 30 seconds. The fractions counted were compared to pure compound injected into the same column in order to identify the number of metabolites and the fraction of intact compound circulating at each time point.

- metabolites / intact compound in blood: rapidly formed metabolites
SMILES: CC[C@H](C)[C@H](NC(=O)[C@H](Cc1ccc(O)cc1)NC(=O)[C@@H]1CSSC[C@H](NC(=O)[C@@H](CCC(=O)O)NC(=O)[C@H](Cc2ccc(O)cc2)NC(=O)CCC(C(=O)O)N2CCN(CC(=O)O)CCN(CC(=O)O)CC2)C(=O)N2CC(O)C[C@H]2C(=O)N[C@@H](Cc2ccc(O)c(Cl)c2)C(=O)NCC(=O)N[C@@H](CC(C)C)C(=O)N1)C(=O)N[C@@H](CCC(N)=O)C(N)=O (stereo partly shown) [Compound ^68Ga-16, metal not drawn] ({NODAGA}-Y[dE]C[X1][Tyr(3-Cl)]GLCYIQ-NH2; disulfide 3-8)
